Data: ChEMBL document CHEMBL1201862, “PubChem BioAssay data set” (2004)
Calls of active or inactive are those of the source.

How the values were obtained:
[1] = target: Ras and Rab interactor 1/Tyrosine-protein kinase ABL1 (Homo sapiens, UniProt P00519+Q13671); assay type: functional;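 further: biochemical TR-FRET dose-response test measuring inhibition of binding between Rin1 and Abl proteins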
[2] = target: Photoreceptor-specific nuclear receptor (Homo sapiens, UniProt Q9Y5X4); assay type: functional, cell-based;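 further: CHO-S cells with Gal4-NCOR and VP16-NR2E3 two-hybrid luciferase reporter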
Sequence of Photoreceptor-specific nuclear receptor (Q9Y5X4 whole entry, the tested form may be a part): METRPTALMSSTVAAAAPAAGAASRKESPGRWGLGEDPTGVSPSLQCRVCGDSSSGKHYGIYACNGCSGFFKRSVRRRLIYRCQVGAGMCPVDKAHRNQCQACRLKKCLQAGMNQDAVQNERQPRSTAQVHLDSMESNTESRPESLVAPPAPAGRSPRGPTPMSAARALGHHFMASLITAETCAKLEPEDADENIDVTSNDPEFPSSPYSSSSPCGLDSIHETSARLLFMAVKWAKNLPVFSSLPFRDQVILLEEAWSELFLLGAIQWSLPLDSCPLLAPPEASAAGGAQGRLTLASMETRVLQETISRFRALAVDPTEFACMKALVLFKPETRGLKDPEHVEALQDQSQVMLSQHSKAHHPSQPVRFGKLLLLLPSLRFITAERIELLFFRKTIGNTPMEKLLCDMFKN

[3] = target: T1, Probable nicotinate-nucleotide adenylyltransferase (Staphylococcus aureus (strain N315), UniProt P65502); assay type: functional, Staphylococcus aureus subsp. aureus N315; conditions: read-out: IC50_Mean;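 on IC50 Mean: confirmatory dose-response retesting of NadD inhibitor hits first found in an ultra-high-throughput screen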
T1 sequence (P65502 whole entry): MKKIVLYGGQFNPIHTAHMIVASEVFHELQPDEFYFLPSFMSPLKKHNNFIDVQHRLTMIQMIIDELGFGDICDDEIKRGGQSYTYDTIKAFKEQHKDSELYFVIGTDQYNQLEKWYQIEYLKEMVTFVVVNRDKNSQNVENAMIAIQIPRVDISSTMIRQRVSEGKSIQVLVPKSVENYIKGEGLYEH

[4] = THP-1 cell cytotoxicity, dose response, cytotoxicity control for Vif-APOBEC3G degradation inhibitor project, THP-1 cells (AID 1117359); assay type: functional; conditions: Human immunodeficiency virus 1, THP-1
[5] = target: T1, Probable nicotinate-nucleotide adenylyltransferase; assay type: functional, Staphylococcus aureus subsp. aureus N315
[6] = Luminescence Cell-Based Dose Retest to Confirm Inhibitors of Cancer Stem Cells. [Related pubchem assays (depositor defined):AID2717, AID2721]; assay type: functional; conditions: Homo sapiens
[7] = target: T2, Small ubiquitin-related modifier 1 (Homo sapiens, UniProt P63165); assay: inhibitors of SUMO1 peptide binding, dose response, biochemical, fluorescence polarization, uHTS hits (AID 624382); assay type: functional; conditions: read-out: IC50_Mean
T2 sequence (P63165 whole entry): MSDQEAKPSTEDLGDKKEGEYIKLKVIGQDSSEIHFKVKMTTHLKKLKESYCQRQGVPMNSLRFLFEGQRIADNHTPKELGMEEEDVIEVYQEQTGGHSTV

[8] = target: T2, Small ubiquitin-related modifier 1; assay: inhibitors of SUMO1 partner interactions, dose response, biochemical, FRET (AID 624383); assay type: functional; conditions: read-out: IC50_Mean
[9] = target: T3, Low molecular weight phosphotyrosine protein phosphatase (Homo sapiens, UniProt P24666); assay type: functional; conditions: read-out: IC50_Mean
T3 sequence (P24666 whole entry): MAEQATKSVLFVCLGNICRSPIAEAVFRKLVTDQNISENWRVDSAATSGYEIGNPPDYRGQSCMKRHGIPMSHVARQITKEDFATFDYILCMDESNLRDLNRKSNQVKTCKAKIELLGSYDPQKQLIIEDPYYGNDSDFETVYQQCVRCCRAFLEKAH

[10] = target: T4, Adenosylmethionine-8-amino-7-oxononanoate aminotransferase (Mycobacterium tuberculosis, UniProt P9WQ81); assay: Mycobacterium tuberculosis BioA enzyme inhibitor Measured in Biochemical System Using Plate Reader - 2163-02_Inhibitor_Dose_CherryPick_Activity.; assay type: functional, Mycobacterium tuberculosis UT205
T4 sequence (P9WQ81 whole entry): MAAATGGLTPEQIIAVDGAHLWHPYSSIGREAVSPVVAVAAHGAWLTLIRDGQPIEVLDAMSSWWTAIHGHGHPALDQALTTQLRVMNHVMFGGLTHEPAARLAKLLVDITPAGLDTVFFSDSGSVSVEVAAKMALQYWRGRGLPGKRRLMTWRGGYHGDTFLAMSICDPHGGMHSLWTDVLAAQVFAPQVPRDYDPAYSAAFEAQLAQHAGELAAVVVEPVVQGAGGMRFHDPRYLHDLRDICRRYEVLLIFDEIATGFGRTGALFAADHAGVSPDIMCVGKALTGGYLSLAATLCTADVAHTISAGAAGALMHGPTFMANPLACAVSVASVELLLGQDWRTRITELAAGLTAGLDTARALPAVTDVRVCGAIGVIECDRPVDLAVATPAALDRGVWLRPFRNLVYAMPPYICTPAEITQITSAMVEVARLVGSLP

[11] = tested on: Vero; assay: Vero cell cytotoxicity, cytotoxicity control for flavivirus capping enzyme inhibitors (AID 588742); assay type: functional; conditions: Chlorocebus sabaeus
[12] = target: T5, Replicative DNA helicase DnaB (Mycobacterium tuberculosis, UniProt P9WMR3); assay: DnaB intein splicing inhibitors, dose response, biochemical, cell-free fluorescence (AID 449749); assay type: functional
T5 sequence (P9WMR3 whole entry): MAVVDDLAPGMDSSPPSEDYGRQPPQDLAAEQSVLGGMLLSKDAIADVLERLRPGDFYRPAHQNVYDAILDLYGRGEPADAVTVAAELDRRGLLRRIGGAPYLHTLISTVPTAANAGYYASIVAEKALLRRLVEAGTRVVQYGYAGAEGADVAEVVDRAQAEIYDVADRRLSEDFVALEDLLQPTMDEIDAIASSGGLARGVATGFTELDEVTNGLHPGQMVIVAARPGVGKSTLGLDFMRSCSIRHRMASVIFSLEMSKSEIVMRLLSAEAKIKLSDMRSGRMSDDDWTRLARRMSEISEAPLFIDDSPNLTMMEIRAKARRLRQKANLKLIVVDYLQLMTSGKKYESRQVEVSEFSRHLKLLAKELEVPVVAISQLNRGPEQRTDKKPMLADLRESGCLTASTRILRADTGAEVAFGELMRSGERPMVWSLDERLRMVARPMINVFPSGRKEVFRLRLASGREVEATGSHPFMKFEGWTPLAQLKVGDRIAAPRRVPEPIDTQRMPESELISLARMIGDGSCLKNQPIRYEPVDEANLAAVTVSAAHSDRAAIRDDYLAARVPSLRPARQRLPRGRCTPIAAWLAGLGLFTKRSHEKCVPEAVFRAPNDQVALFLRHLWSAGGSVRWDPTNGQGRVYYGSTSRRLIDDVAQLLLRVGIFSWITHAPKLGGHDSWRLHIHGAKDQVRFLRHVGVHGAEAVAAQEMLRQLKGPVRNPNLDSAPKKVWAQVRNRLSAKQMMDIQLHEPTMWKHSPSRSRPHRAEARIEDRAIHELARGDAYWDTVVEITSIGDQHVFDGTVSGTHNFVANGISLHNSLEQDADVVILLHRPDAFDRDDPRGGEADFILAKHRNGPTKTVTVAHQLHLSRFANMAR

[13] = target: Genome polyprotein (dengue virus type 2, UniProt P29990); assay: Dengue-2 NS5 methyltransferase inhibitors, primary screen, biochemical, confirmation dose response (AID 588689); assay type: functional
Sequence of Genome polyprotein (P29990 2492-3391 limits assumed): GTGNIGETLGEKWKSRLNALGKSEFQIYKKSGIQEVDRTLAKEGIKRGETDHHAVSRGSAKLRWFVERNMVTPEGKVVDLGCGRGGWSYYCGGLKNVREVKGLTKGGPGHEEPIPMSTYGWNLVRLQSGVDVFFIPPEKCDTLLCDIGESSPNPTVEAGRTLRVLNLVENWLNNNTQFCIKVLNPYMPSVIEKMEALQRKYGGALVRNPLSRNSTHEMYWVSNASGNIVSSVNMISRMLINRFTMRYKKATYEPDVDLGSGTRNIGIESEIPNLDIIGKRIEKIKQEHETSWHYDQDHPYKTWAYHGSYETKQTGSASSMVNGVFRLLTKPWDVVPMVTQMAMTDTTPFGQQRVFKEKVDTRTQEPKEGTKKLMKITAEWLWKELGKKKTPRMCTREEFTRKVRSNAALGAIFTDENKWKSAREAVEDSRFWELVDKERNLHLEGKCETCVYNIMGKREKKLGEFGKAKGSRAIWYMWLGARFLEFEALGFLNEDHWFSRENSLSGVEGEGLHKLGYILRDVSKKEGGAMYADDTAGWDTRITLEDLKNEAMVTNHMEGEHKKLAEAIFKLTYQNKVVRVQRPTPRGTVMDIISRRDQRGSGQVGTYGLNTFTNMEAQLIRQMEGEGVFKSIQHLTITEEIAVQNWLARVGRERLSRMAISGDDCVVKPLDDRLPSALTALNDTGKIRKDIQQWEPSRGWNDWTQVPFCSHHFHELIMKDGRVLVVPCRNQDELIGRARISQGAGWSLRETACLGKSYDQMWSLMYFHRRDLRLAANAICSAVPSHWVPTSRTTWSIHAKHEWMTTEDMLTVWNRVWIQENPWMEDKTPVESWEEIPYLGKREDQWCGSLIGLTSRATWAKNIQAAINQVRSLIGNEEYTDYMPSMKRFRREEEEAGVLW

[14] = target: T6, Protein RecA (Mycobacterium tuberculosis, UniProt P9WHJ3); assay: Fluorescence Cell-Free Homogeneous Dose Retest to Identify Inhibitors of RecA-Intein Splicing Activity. [Related pubchem assays (depositor defined):AID2097, AID2223, AID489010, AID492950]; assay type: functional
T6 sequence (P9WHJ3 whole entry): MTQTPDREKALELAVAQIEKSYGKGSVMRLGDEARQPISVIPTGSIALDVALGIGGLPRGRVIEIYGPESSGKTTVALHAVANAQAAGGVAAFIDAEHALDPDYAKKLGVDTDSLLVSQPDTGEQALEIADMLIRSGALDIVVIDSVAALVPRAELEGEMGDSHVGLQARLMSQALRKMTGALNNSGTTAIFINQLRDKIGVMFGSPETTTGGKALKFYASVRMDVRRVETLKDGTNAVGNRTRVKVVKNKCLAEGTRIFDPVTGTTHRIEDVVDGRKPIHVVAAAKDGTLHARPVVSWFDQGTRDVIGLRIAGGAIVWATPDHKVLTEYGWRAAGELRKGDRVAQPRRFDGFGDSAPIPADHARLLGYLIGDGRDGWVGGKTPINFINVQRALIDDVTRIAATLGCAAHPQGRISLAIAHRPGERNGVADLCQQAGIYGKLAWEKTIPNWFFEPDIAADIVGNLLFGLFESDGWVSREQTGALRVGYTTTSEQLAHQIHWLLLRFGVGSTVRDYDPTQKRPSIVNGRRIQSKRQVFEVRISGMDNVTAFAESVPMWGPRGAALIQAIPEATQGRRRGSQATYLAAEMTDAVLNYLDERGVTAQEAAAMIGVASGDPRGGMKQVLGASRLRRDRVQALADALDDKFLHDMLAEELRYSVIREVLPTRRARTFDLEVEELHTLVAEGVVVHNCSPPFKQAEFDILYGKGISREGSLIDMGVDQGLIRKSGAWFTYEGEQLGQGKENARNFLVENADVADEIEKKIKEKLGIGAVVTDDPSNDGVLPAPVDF

[15] = target: T7, Zinc finger protein mex-5 (Caenorhabditis elegans, UniProt Q9XUB2); assay: MEX-5/TCR-2 RNA interaction inhibitors, dose response, biochemical, C. elegans, fluorescence polarization (AID 1960)
T7 sequence (Q9XUB2 whole entry): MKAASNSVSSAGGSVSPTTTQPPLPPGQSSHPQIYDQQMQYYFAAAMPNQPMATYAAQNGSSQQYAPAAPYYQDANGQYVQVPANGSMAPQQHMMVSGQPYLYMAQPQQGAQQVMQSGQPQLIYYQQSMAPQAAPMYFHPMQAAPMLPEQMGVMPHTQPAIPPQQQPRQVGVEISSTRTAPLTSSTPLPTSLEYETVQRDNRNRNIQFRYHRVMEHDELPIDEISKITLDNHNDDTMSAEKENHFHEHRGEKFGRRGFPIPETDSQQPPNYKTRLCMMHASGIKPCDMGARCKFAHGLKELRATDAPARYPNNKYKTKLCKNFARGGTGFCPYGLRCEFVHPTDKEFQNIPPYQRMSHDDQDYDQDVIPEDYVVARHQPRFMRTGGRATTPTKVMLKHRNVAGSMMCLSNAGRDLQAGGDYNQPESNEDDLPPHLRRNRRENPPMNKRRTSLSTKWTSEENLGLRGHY

[16] = target: T8, Long-chain-fatty-acid--AMP ligase FadD28 (Mycobacterium tuberculosis, UniProt P9WQ59); assay: Fluorescence polarization aasay to screen for inhibitors that compete for the binding of FadD28 to a bisubstrate Measured in Biochemical System Using Plate Reader - 2147-01_Inhibitor_Dose_CherryPick_Activity.; assay type: functional, Mycobacterium tuberculosis H37Rv
T8 sequence (P9WQ59 whole entry): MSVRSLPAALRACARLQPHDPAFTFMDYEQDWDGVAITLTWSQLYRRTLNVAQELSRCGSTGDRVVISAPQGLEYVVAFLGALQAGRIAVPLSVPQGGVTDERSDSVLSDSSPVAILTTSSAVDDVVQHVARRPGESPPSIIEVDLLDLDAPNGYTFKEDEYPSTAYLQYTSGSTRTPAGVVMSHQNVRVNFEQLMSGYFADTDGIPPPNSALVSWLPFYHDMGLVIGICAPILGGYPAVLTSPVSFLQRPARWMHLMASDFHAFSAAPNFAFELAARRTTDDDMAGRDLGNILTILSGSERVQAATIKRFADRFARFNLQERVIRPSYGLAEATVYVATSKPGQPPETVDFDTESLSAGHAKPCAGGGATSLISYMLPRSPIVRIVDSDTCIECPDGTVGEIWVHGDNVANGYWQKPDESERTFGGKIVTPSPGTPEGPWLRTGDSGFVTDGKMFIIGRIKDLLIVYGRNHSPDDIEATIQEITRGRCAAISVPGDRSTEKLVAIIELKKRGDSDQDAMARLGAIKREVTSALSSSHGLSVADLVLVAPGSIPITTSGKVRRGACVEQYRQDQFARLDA

[17] = target: T9, RNA-binding protein pos-1 (Caenorhabditis elegans, UniProt G5EF15); assay: inhibitors of POS-1/mex-3 RNA binding, dose response, biochemical, fluorescence polarization (AID 1964);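 further: purified POS-1 fused to maltose binding protein made in E. coli; potency of compounds blocking POS-1 binding to fluorescent RNA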
T9 sequence (G5EF15 whole entry): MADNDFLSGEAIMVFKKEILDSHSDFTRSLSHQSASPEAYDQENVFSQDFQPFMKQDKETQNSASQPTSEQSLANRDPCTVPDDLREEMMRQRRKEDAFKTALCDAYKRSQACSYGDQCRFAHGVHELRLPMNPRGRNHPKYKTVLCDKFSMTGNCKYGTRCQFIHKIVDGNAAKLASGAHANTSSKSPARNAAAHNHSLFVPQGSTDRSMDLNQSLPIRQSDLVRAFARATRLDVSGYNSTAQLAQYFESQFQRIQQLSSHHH

[18] = cytotoxicity toward NIH3T3 fibroblasts, dose response, counter-screen, cell-based, ATP luminescence, mouse fibroblasts (AID 2010); assay type: functional;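 further: cells exposed to compound for about 90 hours before reading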
[19] = inhibitors of intracellular T. cruzi replication, confirmation, NIH3T3 host cells, beta-gal luminescence (AID 2044); assay type: functional, cell-based;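 further: intracellular parasites grown in NIH/3T3 mouse fibroblasts as host cells; luminescent beta-galactosidase reporter signal from transgenic T. cruzi replicating inside host cells; inhibitors lower the luminescence signal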
[20] = Vero E6 cell cytotoxicity, dose response, cytotoxicity control for non-replicating M. tuberculosis project, secondary assay (AID 492998); assay type: functional, VeroE6; conditions: Vero C1008
[21] = HeLa cell cytotoxicity, dose response, cytotoxicity control for MgcRacGAP inhibitor project (AID 624300); assay type: functional
[22] = HepG2 cell cytotoxicity, dose response, cytotoxicity control for non-replicating M. tuberculosis project (AID 489018); assay type: functional; conditions: Mycobacterium tuberculosis
[23] = THP-1 cell cytotoxicity, dose response, cytotoxicity control for non-replicating M. tuberculosis project (AID 489025); assay type: functional

Sequence of Ras and Rab interactor 1/Tyrosine-protein kinase ABL1 (P00519 whole entry, the tested form may be a part): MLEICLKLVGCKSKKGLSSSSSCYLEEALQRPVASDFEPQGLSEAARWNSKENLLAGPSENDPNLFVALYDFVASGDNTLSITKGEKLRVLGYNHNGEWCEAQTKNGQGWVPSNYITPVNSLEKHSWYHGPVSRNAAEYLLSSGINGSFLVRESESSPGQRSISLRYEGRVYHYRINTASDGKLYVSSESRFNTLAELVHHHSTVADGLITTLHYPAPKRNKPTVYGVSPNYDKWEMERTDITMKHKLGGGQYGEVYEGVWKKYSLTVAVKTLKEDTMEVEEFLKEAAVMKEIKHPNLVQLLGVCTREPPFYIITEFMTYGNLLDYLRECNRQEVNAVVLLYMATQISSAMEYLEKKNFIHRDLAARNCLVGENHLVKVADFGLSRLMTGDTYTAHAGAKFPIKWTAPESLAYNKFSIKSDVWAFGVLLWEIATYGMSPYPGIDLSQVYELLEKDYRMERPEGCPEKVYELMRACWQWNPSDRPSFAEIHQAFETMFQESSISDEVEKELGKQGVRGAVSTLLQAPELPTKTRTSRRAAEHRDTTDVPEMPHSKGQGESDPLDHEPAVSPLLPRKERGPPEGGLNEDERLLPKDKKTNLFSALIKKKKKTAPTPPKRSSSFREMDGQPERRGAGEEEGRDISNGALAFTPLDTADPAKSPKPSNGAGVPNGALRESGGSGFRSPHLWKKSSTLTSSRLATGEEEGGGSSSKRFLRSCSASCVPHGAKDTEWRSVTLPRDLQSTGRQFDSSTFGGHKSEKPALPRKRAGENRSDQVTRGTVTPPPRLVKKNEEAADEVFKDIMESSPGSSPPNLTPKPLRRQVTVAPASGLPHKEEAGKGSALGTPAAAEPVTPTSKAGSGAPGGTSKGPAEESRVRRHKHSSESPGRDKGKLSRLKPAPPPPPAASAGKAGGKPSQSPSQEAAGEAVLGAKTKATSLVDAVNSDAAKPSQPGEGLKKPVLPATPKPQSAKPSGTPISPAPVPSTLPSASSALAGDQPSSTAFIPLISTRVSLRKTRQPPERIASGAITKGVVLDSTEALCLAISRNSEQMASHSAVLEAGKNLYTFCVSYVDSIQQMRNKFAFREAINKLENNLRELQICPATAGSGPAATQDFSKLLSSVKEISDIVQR
Sequence of Ras and Rab interactor 1/Tyrosine-protein kinase ABL1 (Q13671 whole entry, the tested form may be a part): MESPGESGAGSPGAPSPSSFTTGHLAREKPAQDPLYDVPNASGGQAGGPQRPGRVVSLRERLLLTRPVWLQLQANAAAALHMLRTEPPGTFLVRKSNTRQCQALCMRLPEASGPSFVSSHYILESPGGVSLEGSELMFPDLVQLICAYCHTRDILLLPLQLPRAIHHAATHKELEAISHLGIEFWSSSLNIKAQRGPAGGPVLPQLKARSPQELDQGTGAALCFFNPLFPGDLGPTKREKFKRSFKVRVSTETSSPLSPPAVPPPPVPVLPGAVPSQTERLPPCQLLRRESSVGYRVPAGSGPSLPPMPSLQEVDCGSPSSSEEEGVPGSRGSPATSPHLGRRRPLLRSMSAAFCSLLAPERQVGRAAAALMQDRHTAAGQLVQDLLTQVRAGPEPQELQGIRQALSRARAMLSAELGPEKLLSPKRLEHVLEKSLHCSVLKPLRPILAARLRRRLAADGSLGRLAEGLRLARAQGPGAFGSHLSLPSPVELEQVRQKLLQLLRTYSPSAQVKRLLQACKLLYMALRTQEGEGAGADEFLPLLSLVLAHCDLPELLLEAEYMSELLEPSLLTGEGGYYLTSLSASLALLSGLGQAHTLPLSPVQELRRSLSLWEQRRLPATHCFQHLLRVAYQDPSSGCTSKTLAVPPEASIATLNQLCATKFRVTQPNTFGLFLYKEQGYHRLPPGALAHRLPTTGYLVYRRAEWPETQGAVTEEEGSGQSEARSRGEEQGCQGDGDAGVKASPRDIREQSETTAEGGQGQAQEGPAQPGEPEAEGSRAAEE

## CCOC(=O)c1ccc(NC(=O)NC2CC3CCC(C2)N3)cc1 (stereo unspecified)
[1]
  IC50: 31.7 µM (inactive)

## c1coc(CNc2ncnc3ccccc23)c1
[2]
  IC50: 4.34 µM (active)

## O=C(NC(=S)Nc1cccc(S(=O)(=O)NC2=NCCC2)c1)c1cc(-c2ccco2)nc2ccccc12
[3]
  IC50: 35 µM (active)
[4]
  CC50: > 40 µM (active)
[5]
  IC50: 10.4 µM (active)

## Cc1ccc([N+](=O)[O-])cc1-c1ccc(/C=C(\C#N)c2[nH]nc(N)c2C#N)o1
[6]
  AC50: 2.98 µM (active)
[7]
  IC50: > 66.6 µM (inactive)
[8]
  IC50: 1.74 µM (active)

## Clc1ccc(Br)cc1-c1nc(-c2ccncc2)no1
[9]
  IC50: 12.2 µM (active)

## CCCc1cc(=O)oc2c3c(cc(OCC(=O)NCCCn4ccnc4)c12)OC(C)(C)CC3
[10]
  AC50: 5.93 µM (active)

## CCOC(=O)c1c(NC(=O)/C=C/C(=O)O)sc(C)c1-c1ccc(C)c(C)c1
[11]
  CC50: > 40 µM (active)
[12]
  AC50: 8.39 µM (active)
[13]
  IC50: 75.1 µM (active)
[14]
  EC50: 1.89 µM (active)

## Cc1cccc(NC(=O)CN2C(=O)N/C(=C\c3cccn3-c3cccc(C(=O)O)c3)C2=O)c1
[15]
  EC50: > 300 µM (not active)
[16]
  AC50: > 100 µM (inactive)
[17]
  EC50: > 300 µM (not active)

## O=C(Nc1ccc(S(=O)(=O)Nc2nccs2)cc1)c1cc(-c2ccccc2Cl)nc2ccccc12
[3]
  IC50: 22.2 µM (active)
[5]
  IC50: 6.99 µM (active)

## O=C(Nc1cccc(NC(=O)c2ccc(-c3ccc(Br)cc3)o2)c1)c1ccco1
[18]
  EC50: > 30 µM (not active)
[7]
  IC50: > 66.6 µM (inactive)
[8]
  IC50: 6.92 µM (active)
[19]
  EC50: 2.73 µM (active)

## COc1cc(CNCCNC(=O)c2nonc2N)ccc1OCc1ccc(Cl)cc1
[20]
  CC50: > 20 µM (active)
[21]
  CC50: 75.4 µM (active)
[22]
  CC50: > 20 µM (active)
[23]
  CC50: 24.3 µM (active)

## Cc1cnc(NC(=O)C2CC(=O)N(c3ccc4c(c3)OCCO4)C2)s1 (stereo unspecified)
[2]
  IC50: 7.49 µM (active)

## O=C(Nc1ccn([C@H]2CC[C@@H](CO)O2)c(=O)n1)c1ccccc1
[1]
  IC50: 66.6 µM (inactive)

## O=C(c1cccc(F)c1)N1CC[C@@H]2[C@H](CO)Nc3ccc(-c4cccc(F)c4)cc3[C@@H]21
[10]
  AC50: 0.185 µM (active)

## C[C@@H]1CN([C@H](C)CO)C(=O)Cc2cc(NC(=O)Cn3cnnn3)ccc2O[C@H]1CN(C)Cc1ccc2c(c1)OCO2
[10]
  AC50: 7.3 µM (active)
